Data reported in patent US20120130481A1, “LOCAL VASCULAR DELIVERY OF ADENOSINE A2A RECEPTOR AGONISTS IN COMBINATION WITH OTHER AGENTS TO REDUCE MYOCARDIAL INJURY” (priority 2010, published 2012).

How the values were obtained:
[1] = In vivo release kinetics from dual drug reservoir stent, porcine coronary artery model; settings: at thirty (30) days, 3.5×17 mm reservoir stent, PLGA75/25, in vivo (FIG. 18)
From the text: FIG. 18 graphically illustrates the release kinetic curves for sirolimus 1902 and cilostazol 1904 over a period of thirty (30) days from an in vivo release kinetics study. As illustrated, the release kinetics are similar for both drugs with approximately seventy (70) percent of both drugs being released from the stent at thirty (30) days (sirolimus being a little higher than the cilostazol). A 3.5×17 mm stent with reservoirs was utilized in the study. Each drug was placed individually in a reservoir to create an alternating pattern. The basic construct of each reservoir fill was a base (luminal side of the stent) comprising only polymer (PLGA75/25) and no drug, a drug matrix either comprising 120.4 micro grams of cilostazol and 197.1 micro grams of polymer (PLGA75/25) or 146.9 micro grams of sirolimus and 175.0 micro grams of polymer (PLGA75/25), and a cap comprising only polymer (PLGA75/25). The stent was placed in a standard porcine coronary artery model to evaluate the in vivo release kinetics and tissue concentration of both drugs released from the stent over time.

[2] = In vitro release kinetics of sirolimus/cilostazol stent coatings; assay type: physicochemical
[3] = cited from earlier work
[4] = Porcine drug elution PK study of dual drug eluting coating (in vivo release); design: species or system pig; settings: after eight (8) days of implantation, single layer configuration of FIG. 15 (FIG. 13)
From the text: Another critical parameter for the performance of the thrombus resistance of a device coated with cilostazol is the duration of the drug release from the coating. This is of particular significance in the two weeks after device implantation. In the porcine drug elution PK studies of the dual drug eluting coating, both cilostazol and sirolimus were slowly released from the coating, resulting in a sustained drug release profile. The purpose of the porcine PK study is to assess the local pharmacokinetics of a drug eluting stent at a given implantation time. Normally three stents are implanted in three different coronary arteries in a pig for a given time point and then retrieved for total drug recovery analysis. The stents are retrieved at predetermined time points; namely, 1, 3 and 8 days. The stents are extracted and the total amount of drug remaining on the stents is determined by analysis utilizing HPLC (high performance liquid chromatography) for total drug amount. The difference between the original amount of drug on the stent and the amount of drug retrieved at a given time represents the amount of drug released in that period. The continuous release of drug into surrounding arterial tissue is what prevents the neointimal growth and restenosis in the coronary artery. A normal plot represents the percentage of total drug released (%, y-axis) vs. time of implantation (day, x-axis). […]

[5] = test system: platelet deposition and thrombus formation on the stent surface; assay: In vitro bovine blood loop model (anti-thrombotic activity); settings: FIG. 12, cilostazol in sirolimus/cilostazol coatings
From the text: The anti-thrombotic efficacy of the above-described three configurations is illustrated in FIG. 12. FIG. 12 illustrates the anti-thrombotic properties of the sirolimus/cilostazol combination coatings described above in an in vitro bovine blood loop model. In the in vitro bovine blood loop model, fresh bovine blood is heparinized to adjust for acute clotting time (ACT) of about two hundred (200) seconds. The platelet content in the blood is labeled through the use of Indium 111. In the study, a stent is deployed in a silicone tube, which is part of a closed loop system for blood circulation. The heparinzed blood is circulated through the closed loop system by means of a circulating pump. Activated platelets, fibrin and thrombus builds up on a stent surface over time and reduces the flow rate of blood through the stented loop. The flow is stopped when the flow rate is reduced to fifty (50) percent of the starting value or at ninety (90) minutes if none of the tested stent reduces the flow by fifty (50) percent. The total radioactivity (In 111) on the stent surface is counted by a […] and normalized with the control unit, set as one hundred (100) percent in the chart. […]

SMILES	drug released from the stent [1]	drug release rate, 200 µg vs 100 µg BMA diffusion overcoat ([2]; configuration of FIG. 7 (200 µg BMA) compared with FIG. 9 (100 µg BMA), FIGS. 8 and 10)	in vitro release rate compared to the dual drug base coating ([2]; configuration of FIG. 7 vs FIG. 15)	in vitro release ([2]; single layer configuration of FIG. 15 (FIG. 14))	solubility in water [3]	drug remained in the drug coating [4]	thrombus formation [5]
O=C1CCc2cc(OCCCCc3nnnn3C3CCCCC3)ccc2N1 [cilostazol, 6[4-(1-cyclohexyl-1H-tetrazol-5-yl)-butoxy]-3,4-dihydro-2-(1H)-quinolinone]	~70%	comparatively slower	much faster rate	~35%	relatively low solubility in water	~80%	significantly reduces thrombus formation
CO[C@H]1C[C@@H]2CC[C@@H](C)[C@@](O)(O2)C(=O)C(=O)N2CCCC[C@H]2C(=O)O[C@H]([C@H](C)C[C@@H]2CC[C@@H](O)[C@H](OC)C2)CC(=O)[C@H](C)/C=C(\C)[C@@H](O)[C@@H](OC)C(=O)[C@H](C)C[C@H](C)/C=C/C=C/C=C/1C [sirolimus]	~70%	–	–	–	–	~80%	–
